Results: article PMC11659602, “Discovering covalent cyclic peptide inhibitors of peptidyl arginine deiminase 4 (PADI4) using mRNA-display with a genetically encoded electrophilic warhead” (Communications Chemistry, 2024)
“And” between values parts separate entries of the source, which are not always exact repeats. Equal values may be shown once. Values belong to the compound of their own block, whether it stands above or below them. Where a SMILES comes first, the peptide text is derived from it. Bridges are numbered along the chain shown (N, C = ends). [ ]: non-standard residue; d: D form. Orn(fluoroacetimidoyl) = N=C(CF)NCCC[C@H](N)C(=O)O

Legend:
Experiment in all cases: Incubation time-dependent COLDER assay, selectivity
Assay type in all cases: biochemical
PADI2 = target: T1, PADI2 (Homo sapiens, UniProt Q9Y2J8); details: for PADI2 activity normalised to 0.1% DMSO: quenched after 60 mins
T1 construct: His6; made in house
T1 sequence (Q9Y2J8 whole entry, species assumed): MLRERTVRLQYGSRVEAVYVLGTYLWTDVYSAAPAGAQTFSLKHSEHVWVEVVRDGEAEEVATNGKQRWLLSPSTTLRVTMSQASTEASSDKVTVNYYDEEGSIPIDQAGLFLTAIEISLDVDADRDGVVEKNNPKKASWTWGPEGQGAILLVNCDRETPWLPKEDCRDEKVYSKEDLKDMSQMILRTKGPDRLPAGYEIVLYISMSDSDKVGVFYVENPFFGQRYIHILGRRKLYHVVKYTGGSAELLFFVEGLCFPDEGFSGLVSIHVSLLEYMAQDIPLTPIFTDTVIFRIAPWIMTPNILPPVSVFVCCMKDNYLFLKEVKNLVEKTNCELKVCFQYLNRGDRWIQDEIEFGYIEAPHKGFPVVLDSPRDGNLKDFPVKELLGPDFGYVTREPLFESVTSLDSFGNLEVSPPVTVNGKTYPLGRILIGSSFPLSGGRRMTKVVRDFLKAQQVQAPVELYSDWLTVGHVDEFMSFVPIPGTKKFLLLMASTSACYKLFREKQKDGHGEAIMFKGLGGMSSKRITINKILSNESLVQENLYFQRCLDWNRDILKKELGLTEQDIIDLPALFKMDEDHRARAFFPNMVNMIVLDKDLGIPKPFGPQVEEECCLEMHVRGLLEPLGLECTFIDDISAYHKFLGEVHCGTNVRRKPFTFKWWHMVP
Description: (§1) To determine KI and kinact of covalent peptide inhibitors, COLDER assays were used[52]. Peptide dilutions were prepared using 5-fold dilutions from 500 µM and 300 µM to 0.8 µM and 2.4 µM, respectively, at 1% DMSO in COLDER buffer (50 mM HEPES, 150 mM NaCl and 2 mM DTT, pH 7.5). The 9 peptide dilutions were added to a 96-well plate, alongside a 1% DMSO control. An equal volume of 10 mM BAEE was added to each well and the solution was homogenised by pipette mixing. This was mixed with 50 nM His-PADI4, 0.6 mg/mL BSA and 10 mM CaCl2, in COLDER buffer, to bring the final volume to 300 µL in each well. Alternatively, His-PAD1 (100 nM) /His-PADI2 (100 nM) /His-PADI3 (250 nM) were used. For assays with PADI1 and PADI3, 10 mM N^α-benzoyl-L-arginine methyl […] (BAME) was used as the substrate instead of BAEE[48],[58],[59]. At 15-minute intervals, for 5 timepoints, 50 µL of solution was taken from each well and quenched with 10 µL EDTA (300 mM). 200 µL of COLDER solution containing 20 mM diacetyl monoxime/2,3-butanedione monoxime (Merck), 0.5 mM thiosemicarbazide (Acros Organics), 2.25 M H3PO4, 4.5 M H2SO4 and 1.5 mM NH4Fe(SO4)2.12H2O was added to each well. Samples were incubated for 20 min at 95 °C before measuring absorbance at 540 nm on a CLARIOstar Plus (BMG LABTECH). IC50 values for each time point were determined using non-linear regression with GraphPad Prism. Incubation time–dependent potency IC50(t) against incubation time was fitted to the Krippendorff equation (below) to determine KI and kinact using a Python script[53],[59]. […] IC50t=KI1+S/KM⋅2−2e^−ηIC50⋅kinact⋅t/ηIC50⋅kinact⋅t−1 WhereηIC50=IC50t/KI1+S/KM+IC50t

PADI1 = target: T2, PADI1 (Homo sapiens, UniProt Q9ULC6); details: for PADI1 activity normalised to 0.1% DMSO: quenched after 60 mins
T2 construct: human PADI1 (residue 1-663); made in house; host or cells: E. coli NiCo21(DE3)
T2 sequence (Q9ULC6 1-663): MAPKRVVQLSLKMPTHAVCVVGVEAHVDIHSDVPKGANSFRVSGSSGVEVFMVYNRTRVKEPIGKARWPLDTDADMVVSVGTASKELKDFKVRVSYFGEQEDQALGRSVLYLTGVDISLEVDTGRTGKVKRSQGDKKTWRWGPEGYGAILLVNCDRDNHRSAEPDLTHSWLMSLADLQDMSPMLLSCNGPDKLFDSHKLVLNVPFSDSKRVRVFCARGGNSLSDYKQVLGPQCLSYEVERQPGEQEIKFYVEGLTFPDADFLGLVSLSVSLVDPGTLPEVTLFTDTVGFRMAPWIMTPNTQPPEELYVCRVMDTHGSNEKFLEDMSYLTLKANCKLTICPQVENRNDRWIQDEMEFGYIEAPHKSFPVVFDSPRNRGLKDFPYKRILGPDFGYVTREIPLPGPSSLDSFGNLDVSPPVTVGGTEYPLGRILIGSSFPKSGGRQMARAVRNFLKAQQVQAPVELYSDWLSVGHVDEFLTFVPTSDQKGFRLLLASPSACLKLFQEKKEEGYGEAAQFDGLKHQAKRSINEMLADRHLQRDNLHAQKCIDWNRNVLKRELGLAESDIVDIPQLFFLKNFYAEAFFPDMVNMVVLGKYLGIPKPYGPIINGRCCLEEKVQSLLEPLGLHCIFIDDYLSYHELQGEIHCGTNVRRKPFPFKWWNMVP
Description: as §1

PADI3 = target: T3, PADI3 (Homo sapiens, UniProt Q9ULW8); details: for selectivity for PADI4 over PADI3: COLDER; for PADI3 activity, normalised (Figure S11c): same values as column 60 of Figure S11b; for PADI3 activity normalised to 0.1% DMSO: quenched after 60 mins
T3 construct: PADI3 (residue 1-664); made in house; host or cells: E. coli NiCo21(DE3)
T3 sequence (Q9ULW8 1-664): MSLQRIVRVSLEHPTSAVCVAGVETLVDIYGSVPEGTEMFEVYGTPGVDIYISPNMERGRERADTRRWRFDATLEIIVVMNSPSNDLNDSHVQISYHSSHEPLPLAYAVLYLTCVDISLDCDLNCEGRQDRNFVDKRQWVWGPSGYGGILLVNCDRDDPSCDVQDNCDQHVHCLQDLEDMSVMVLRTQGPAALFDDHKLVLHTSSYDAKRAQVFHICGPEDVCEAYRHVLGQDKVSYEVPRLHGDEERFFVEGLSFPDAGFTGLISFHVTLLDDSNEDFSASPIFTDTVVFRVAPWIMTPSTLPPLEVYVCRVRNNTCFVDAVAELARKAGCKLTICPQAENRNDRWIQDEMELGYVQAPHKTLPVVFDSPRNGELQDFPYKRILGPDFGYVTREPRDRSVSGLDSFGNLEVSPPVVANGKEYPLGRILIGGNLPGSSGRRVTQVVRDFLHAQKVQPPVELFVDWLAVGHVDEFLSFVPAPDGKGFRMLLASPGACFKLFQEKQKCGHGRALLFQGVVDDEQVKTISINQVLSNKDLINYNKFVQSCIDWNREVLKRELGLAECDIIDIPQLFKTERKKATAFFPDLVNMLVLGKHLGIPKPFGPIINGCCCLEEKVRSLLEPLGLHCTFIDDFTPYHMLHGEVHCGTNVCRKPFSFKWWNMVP
Description: as §1

PADI2 activity, normalised (Figure S11c) (PADI2; cP4_4 0.08 µM): 99.789 and 100
PADI2 activity, normalised (Figure S11c) (PADI2; cP4_4 0.24 µM): 95.7806 and 93.2203
PADI2 activity, normalised (Figure S11c) (PADI2; cP4_4 0.4 µM): 102.532 and 106.78
PADI2 activity, normalised (Figure S11c) (PADI2; cP4_4 1.2 µM): 102.954 and 112.106
PADI2 activity, normalised (Figure S11c) (PADI2; cP4_4 2 µM): 97.2574 and 108.91
PADI2 activity, normalised (Figure S11c) (PADI2; cP4_4 6 µM): 96.6245 and 106.586
PADI2 activity, normalised (Figure S11c) (PADI2; cP4_4 10 µM): 98.7342 and 104.552
PADI2 activity, normalised (Figure S11c) (PADI2; cP4_4 30 µM): 95.8861 and 92.155
PADI2 activity, normalised (Figure S11c) (PADI2; cP4_4 50 µM): 84.8101 and 93.6077
PADI1 activity, normalised (Figure S11c) (PADI1; cP4_4 0.08 µM): 100 and 102.598
PADI1 activity, normalised (Figure S11c) (PADI1; cP4_4 0.24 µM): 93.9237 and 90.941
PADI1 activity, normalised (Figure S11c) (PADI1; cP4_4 0.4 µM): 98.9277 and 105.899
PADI1 activity, normalised (Figure S11c) (PADI1; cP4_4 1.2 µM): 98.9873 and 104.073
PADI1 activity, normalised (Figure S11c) (PADI1; cP4_4 2 µM): 100.477 and 105.618
PADI1 activity, normalised (Figure S11c) (PADI1; cP4_4 6 µM): 94.7578 and 98.4551
PADI1 activity, normalised (Figure S11c) (PADI1; cP4_4 10 µM): 89.6942 and 96.559
PADI1 activity, normalised (Figure S11c) (PADI1; cP4_4 30 µM): 69.6188 and 76.5449
PADI1 activity, normalised (Figure S11c) (PADI1; cP4_4 50 µM): 54.4281 and 69.382
selectivity for PADI4 over PADI3 (PADI3): 8 fold
PADI3 activity, normalised (Figure S11c) (PADI3; cP4_4 0.08 µM): 98.438 and 99.5208 and 99.723
PADI3 activity, normalised (Figure S11c) (PADI3; cP4_4 0.24 µM): 84.0122 and 99.425 and 100.739
PADI3 activity, normalised (Figure S11c) (PADI3; cP4_4 0.4 µM): 91.6386 and 95.0168 and 95.5679
PADI3 activity, normalised (Figure S11c) (PADI3; cP4_4 1.2 µM): 73.8132 and 78.438 and 79.5014
PADI3 activity, normalised (Figure S11c) (PADI3; cP4_4 2 µM): 66.9219 and 70.5798
PADI3 activity, normalised (Figure S11c) (PADI3; cP4_4 6 µM): 34.487 and 31.5764 and 37.6731
PADI3 activity, normalised (Figure S11c) (PADI3; cP4_4 10 µM): 25.1148 and 25.0599 and 28.7165
PADI3 activity, normalised (Figure S11c) (PADI3; cP4_4 30 µM): 13.6294 and 7.139 and 10.988
PADI3 activity, normalised (Figure S11c) (PADI3; cP4_4 50 µM): 9.311 and 5.7978 and 6.279
Structure (SMILES): N=C(N)NCCC[C@@H]1NC(=O)[C@H](CCCNC(=N)CF)NC(=O)[C@H](CC(=O)O)NC(=O)[C@H](Cc2ccc(O)cc2)NC(=O)[C@H](CCCCN)NC(=O)[C@H](CO)NC(=O)[C@@H](Cc2ccc(O)cc2)NC(=O)CSC[C@@H](C(=O)NCC(N)=O)NC(=O)[C@H](CC(=O)O)NC(=O)[C@H](CCCNC(=N)N)NC(=O)[C@@H]2CCCN2C(=O)[C@H](CO)NC1=O [cP4_4, ySKYD(2)RSPRDCG] ({CH2CO}-[dY]SKYD[Orn(fluoroacetimidoyl)]RSPRDCG-NH2; thioether N-12)

PADI2 activity normalised to 0.1% DMSO (PADI2; 0.08 µM): 102.409 and 98.7439
PADI2 activity normalised to 0.1% DMSO (PADI2; 0.24 µM): 101.533 and 89.4278
PADI2 activity normalised to 0.1% DMSO (PADI2; 0.4 µM): 100.438 and 90.9979
PADI2 activity normalised to 0.1% DMSO (PADI2; 1.2 µM): 102.409 and 98.4299
PADI2 activity normalised to 0.1% DMSO (PADI2; 2 µM): 106.46 and 98.5345
PADI2 activity normalised to 0.1% DMSO (PADI2; 6 µM): 102.299 and 92.9867
PADI2 activity normalised to 0.1% DMSO (PADI2; 10 µM): 102.956 and 100.105
PADI2 activity normalised to 0.1% DMSO (PADI2; 30 µM): 100.219 and 95.1849
PADI2 activity normalised to 0.1% DMSO (PADI2; 50 µM): 83.0292 and 85.4501
PADI1 activity normalised to 0.1% DMSO (PADI1; 0.08 µM): 100.799 and 102.269
PADI1 activity normalised to 0.1% DMSO (PADI1; 0.24 µM): 99.0011 and 78.928
PADI1 activity normalised to 0.1% DMSO (PADI1; 0.4 µM): 101.598 and 103.89
PADI1 activity normalised to 0.1% DMSO (PADI1; 1.2 µM): 101.532 and 99.3516
PADI1 activity normalised to 0.1% DMSO (PADI1; 2 µM): 105.527 and 101.88
PADI1 activity normalised to 0.1% DMSO (PADI1; 6 µM): 100.999 and 97.3417
PADI1 activity normalised to 0.1% DMSO (PADI1; 10 µM): 97.1365 and 102.594
PADI1 activity normalised to 0.1% DMSO (PADI1; 30 µM): 94.4062 and 95.3966
PADI1 activity normalised to 0.1% DMSO (PADI1; 50 µM): 83.818 and 84.4392
PADI3 activity normalised to 0.1% DMSO (PADI3; 0.08 µM): 106.942 and 103.941
PADI3 activity normalised to 0.1% DMSO (PADI3; 0.24 µM): 100.503 and 99.2995
PADI3 activity normalised to 0.1% DMSO (PADI3; 0.4 µM): 100.805 and 104.641
PADI3 activity normalised to 0.1% DMSO (PADI3; 1.2 µM): 98.1891 and 97.8109
PADI3 activity normalised to 0.1% DMSO (PADI3; 2 µM): 82.1932 and 92.0315
PADI3 activity normalised to 0.1% DMSO (PADI3; 6 µM): 75.5533 and 73.7303
PADI3 activity normalised to 0.1% DMSO (PADI3; 10 µM): 66.499 and 67.8634
PADI3 activity normalised to 0.1% DMSO (PADI3; 30 µM): 30.8853 and 30.3853
PADI3 activity normalised to 0.1% DMSO (PADI3; 50 µM): 18.8129 and 17.5131
IC50 (PADI3; 60-minute time point, no preincubation): ~40 µM
selectivity for PADI4 over PADI3 (PADI3): Approximately 45 fold
Structure (SMILES): CC(C)C[C@@H]1NC(=O)[C@H](CCCCN)NC(=O)[C@H](CO)NC(=O)[C@H](CO)NC(=O)[C@H](Cc2ccc(O)cc2)NC(=O)[C@H](Cc2c[nH]cn2)NC(=O)[C@H](CCCNC(=N)CF)NC(=O)[C@H](CC(=O)O)NC(=O)[C@H](CC(C)C)NC(=O)[C@@H](Cc2ccc(O)cc2)NC(=O)CSC[C@@H](C(=O)NCC(N)=O)NC(=O)[C@H](Cc2ccc(O)cc2)NC1=O [cP4_15, yLD(2)HYSSKLYCG] ({CH2CO}-[dY]LD[Orn(fluoroacetimidoyl)]HYSSKLYCG-NH2; thioether N-12)
